ChEMBL document CHEMBL5543097, “Synthesis and structure-activity relationships of novel 14-membered 2-fluoro ketolides with structural modification at the C11 position” (Eur J Med Chem, 2024)
≈ marks a conversion by molar mass, not a printed value. Calls of active or inactive are those of the source. The calls are words filed in the database; no cut-off is given here.

Columns and labels:
Moraxella catarrhalis [1] = assay: Antibacterial activity against Moraxella catarrhalis BCA 19-6 assessed as inhibition of bacterial growth incubated for 24 hrs by CLSI based broth microdilution method; type: functional; settings: Moraxella catarrhalis, BCA 19-6, 24 h, read-out: MIC
Haemophilus influenzae [2] = assay: Antibacterial activity against Haemophilus influenzae HIN 19-15 assessed as inhibition of bacterial growth incubated for 20 to 24 hrs by CLSI based broth microdilution method; type: functional; settings: time 20-24 hrs
Streptococcus agalactiae [3] = assay: Antibacterial activity against erythromycin-resistant Streptococcus agalactiae 19-8 assessed as inhibition of visible bacterial growth incubated for 18 hrs by broth microdilution method; type: functional
Streptococcus pneumoniae [4] = assay: Potency index, ratio of telithromycin MIC to test compound MIC for antibacterial activity against Streptococcus pneumoniae SPN19-13 assessed as inhibition of visible bacterial growth incubated for 18 hrs by broth microdilution method; type: functional
[5] = tested on: Staphylococcus epidermidis; assay: Potency index, ratio of telithromycin MIC to test compound MIC for antibacterial activity against erythromycin-resistant Staphylococcus epidermidis 19-11 assessed as inhibition of visible bacterial growth incubated for 18 hrs by broth microdilution method; type: functional
[6] = tested on: Staphylococcus epidermidis; assay: Antibacterial activity against erythromycin-resistant Staphylococcus epidermidis 19-8 assessed as inhibition of visible bacterial growth incubated for 18 hrs by broth microdilution method; type: functional
[7] = tested on: Staphylococcus epidermidis; assay: Potency index, ratio of telithromycin MIC to test compound MIC for antibacterial activity against erythromycin-resistant Staphylococcus epidermidis 19-5 assessed as inhibition of visible bacterial growth incubated for 18 hrs by broth microdilution method; type: functional
[8] = tested on: Staphylococcus epidermidis; assay: Potency index, ratio of telithromycin MIC to test compound MIC for antibacterial activity against erythromycin-resistant Staphylococcus epidermidis 19-9 assessed as inhibition of visible bacterial growth incubated for 18 hrs by broth microdilution method; type: functional
[9] = tested on: Staphylococcus epidermidis; assay: Potency index, ratio of telithromycin MIC to test compound MIC for antibacterial activity against erythromycin-resistant Staphylococcus epidermidis 19-8 assessed as inhibition of visible bacterial growth incubated for 18 hrs by broth microdilution method; type: functional
[10] = tested on: Staphylococcus epidermidis; assay: Antibacterial activity against erythromycin-resistant Staphylococcus epidermidis 19-5 assessed as inhibition of visible bacterial growth incubated for 18 hrs by broth microdilution method; type: functional
[11] = tested on: Staphylococcus epidermidis; assay: Antibacterial activity against erythromycin-resistant Staphylococcus epidermidis 19-6 assessed as inhibition of visible bacterial growth incubated for 18 hrs by broth microdilution method; type: functional
Streptococcus agalactiae [12] = assay: Antibacterial activity against erythromycin-resistant Streptococcus agalactiae 19-9 assessed as inhibition of visible bacterial growth incubated for 18 hrs by broth microdilution method; type: functional
Haemophilus influenzae [13] = assay: Antibacterial activity against Haemophilus influenzae HIN 19-18 assessed as inhibition of bacterial growth incubated for 20 to 24 hrs by CLSI based broth microdilution method; type: functional; settings: HIN 19-18, time 20-24 hrs
[14] = tested on: Staphylococcus epidermidis; assay: Potency index, ratio of telithromycin MIC to test compound MIC for antibacterial activity against erythromycin-resistant Staphylococcus epidermidis 19-4 assessed as inhibition of visible bacterial growth incubated for 18 hrs by broth microdilution method; type: functional
Streptococcus pneumoniae [15] = assay: Antibacterial activity against erythromycin-resistant Streptococcus pneumoniae SPN19-14 assessed as inhibition of visible bacterial growth incubated for 18 hrs by broth microdilution method; type: functional
[16] = tested on: Staphylococcus epidermidis; assay: Antibacterial activity against erythromycin-resistant Staphylococcus epidermidis 19-11 assessed as inhibition of visible bacterial growth incubated for 18 hrs by broth microdilution method; type: functional
Streptococcus pyogenes = assay: Antibacterial activity against erythromycin-resistant Streptococcus pyogenes ATCC 19615 assessed as inhibition of visible bacterial growth incubated for 18 hrs by broth microdilution method; type: functional
[17] = tested on: Staphylococcus epidermidis; assay: Antibacterial activity against erythromycin-resistant Staphylococcus epidermidis 19-9 assessed as inhibition of visible bacterial growth incubated for 18 hrs by broth microdilution method; type: functional
Escherichia coli = assay: Antibacterial activity against Escherichia coli ATCC 35218 assessed as inhibition of visible bacterial growth; type: functional, organism-based
Streptococcus pneumoniae [18] = assay: Potency index, ratio of telithromycin MIC to test compound MIC for antibacterial activity against Streptococcus pneumoniae SPN19-8 assessed as inhibition of visible bacterial growth incubated for 18 hrs by broth microdilution method; type: functional
Streptococcus pneumoniae [19] = assay: Antibacterial activity against erythromycin-resistant Streptococcus pneumoniae SPN19-8 assessed as inhibition of visible bacterial growth incubated for 18 hrs by broth microdilution method; type: functional
[20] = tested on: Staphylococcus epidermidis; assay: Potency index, ratio of telithromycin MIC to test compound MIC for antibacterial activity against erythromycin-resistant Staphylococcus epidermidis 19-6 assessed as inhibition of visible bacterial growth incubated for 18 hrs by broth microdilution method; type: functional
Streptococcus pneumoniae [21] = assay: Potency index, ratio of telithromycin MIC to test compound MIC for antibacterial activity against Streptococcus pneumoniae SPN19-14 assessed as inhibition of visible bacterial growth incubated for 18 hrs by broth microdilution method; type: functional
Moraxella catarrhalis [22] = assay: Antibacterial activity against Moraxella catarrhalis BCA 19-5 assessed as inhibition of bacterial growth incubated for 24 hrs by CLSI based broth microdilution method; type: functional; settings: Moraxella catarrhalis, BCA 19-5, 24 h, read-out: MIC
Streptococcus pneumoniae [23] = assay: Antibacterial activity against erythromycin-resistant Streptococcus pneumoniae SPN19-13 assessed as inhibition of visible bacterial growth incubated for 18 hrs by broth microdilution method; type: functional
[24] = Cytotoxicity against mouse AML12 cells assessed as reduction in cell viability incubated for 48 hrs by MTT assay; type: toxicity, cell-based
Moraxella catarrhalis [25] = assay: Antibacterial activity against Moraxella catarrhalis BCA 19-31 assessed as inhibition of bacterial growth incubated for 24 hrs by CLSI based broth microdilution method; type: functional; settings: BCA 19-31, 24 h
[26] = tested on: Staphylococcus epidermidis; assay: Antibacterial activity against erythromycin-resistant Staphylococcus epidermidis 19-4 assessed as inhibition of visible bacterial growth incubated for 18 hrs by broth microdilution method; type: functional
Haemophilus influenzae [27] = assay: Antibacterial activity against Haemophilus influenzae HIN 20-18 assessed as inhibition of bacterial growth incubated for 20 to 24 hrs by CLSI based broth microdilution method; type: functional; settings: time 20-24 hrs
Staphylococcus aureus = assay: Antibacterial activity against Staphylococcus aureus ATCC 700699 assessed as inhibition of visible bacterial growth; type: functional
Enterococcus faecalis = assay: Antibacterial activity against Enterococcus faecalis ATCC 51575 assessed as inhibition of visible bacterial growth; type: functional, organism-based
Enterococcus faecium = assay: Antibacterial activity against vancomycin-resistant Enterococcus faecium assessed as inhibition of visible bacterial growth; type: functional

CC[C@H]1OC(=O)[C@@](C)(F)C(=O)[C@H](C)[C@@H](O[C@@H]2O[C@H](C)C[C@H](N(C)C)[C@H]2O)[C@](C)(OC)C[C@@H](C)C(=O)[C@H](C)[C@H]2N(CCCOC(=O)Nc3cccc(F)c3)C(=O)O[C@]12C
MIC (Moraxella catarrhalis [1]): < 0.03 µg/mL | MIC (Haemophilus influenzae [2]): 8 µg/mL (≈ 9.69 µM) | MIC (Streptococcus agalactiae [3]): < 0.03 µg/mL | Ratio (Streptococcus pneumoniae [4]): <4 | Ratio [5]: 4 | MIC [6]: < 0.03 µg/mL | Ratio [7]: 4 | Ratio [8]: 4 | Ratio [9]: 4 | MIC [10]: < 0.03 µg/mL | MIC [11]: < 0.03 µg/mL | MIC (Streptococcus agalactiae [12]): 0.06 µg/mL (≈ 0.0726 µM) | MIC (Haemophilus influenzae [13]): 4 µg/mL (≈ 4.84 µM) | Ratio [14]: 4 | MIC (Streptococcus pneumoniae [15]): < 0.03 µg/mL | MIC [16]: < 0.03 µg/mL | MIC (Streptococcus pyogenes): < 0.03 µg/mL | MIC [17]: < 0.03 µg/mL | Activity (Escherichia coli): Active | Ratio (Streptococcus pneumoniae [18]): <4 | MIC (Streptococcus pneumoniae [19]): < 0.03 µg/mL | Ratio [20]: 4 | Ratio (Streptococcus pneumoniae [21]): <4 | MIC (Moraxella catarrhalis [22]): < 0.03 µg/mL | MIC (Streptococcus pneumoniae [23]): < 0.03 µg/mL | CC50 at 48 h [24]: 33.7 µM | MIC (Moraxella catarrhalis [25]): < 3 µg/mL | MIC [26]: < 0.03 µg/mL

CCOc1ccccc1NC(=O)OCCCN1C(=O)O[C@]2(C)[C@@H](CC)OC(=O)[C@@](C)(F)C(=O)[C@H](C)[C@@H](O[C@@H]3O[C@H](C)C[C@H](N(C)C)[C@H]3O)[C@](C)(OC)C[C@@H](C)C(=O)[C@H](C)[C@@H]12
MIC (Moraxella catarrhalis [1]): 0.125 µg/mL (≈ 0.147 µM) | MIC (Haemophilus influenzae [2]): 4 µg/mL (≈ 4.69 µM) | MIC (Haemophilus influenzae [27]): 8 µg/mL (≈ 9.39 µM) | MIC [6]: 0.06 µg/mL (≈ 0.0704 µM) | MIC [10]: < 0.03 µg/mL | MIC [11]: 0.125 µg/mL (≈ 0.147 µM) | MIC (Streptococcus agalactiae [12]): 0.25 µg/mL (≈ 0.293 µM) | MIC (Haemophilus influenzae [13]): 2 µg/mL (≈ 2.35 µM) | MIC (Streptococcus pneumoniae [15]): 0.06 µg/mL (≈ 0.0704 µM) | MIC [16]: 0.16 µg/mL (≈ 0.188 µM) | MIC (Streptococcus pyogenes): < 0.03 µg/mL | MIC [17]: 0.5 µg/mL (≈ 0.587 µM) | MIC (Staphylococcus aureus): 16 µg/mL (≈ 18.8 µM) | MIC (Streptococcus pneumoniae [19]): 0.125 µg/mL (≈ 0.147 µM) | MIC (Moraxella catarrhalis [22]): 0.125 µg/mL (≈ 0.147 µM) | MIC (Streptococcus pneumoniae [23]): 0.06 µg/mL (≈ 0.0704 µM) | CC50 at 48 h [24]: > 100 µM | MIC (Moraxella catarrhalis [25]): 0.03 µg/mL (≈ 0.0352 µM) | MIC [26]: 0.06 µg/mL (≈ 0.0704 µM)

CC[C@H]1OC(=O)[C@@](C)(F)C(=O)[C@H](C)[C@@H](O[C@@H]2O[C@H](C)C[C@H](N(C)C)[C@H]2O)[C@](C)(OC)C[C@@H](C)C(=O)[C@H](C)[C@H]2N(CCCOC(=O)Nc3ccc(C(C)C)cc3)C(=O)O[C@]12C
MIC (Moraxella catarrhalis [1]): 0.25 µg/mL (≈ 0.294 µM) | MIC (Streptococcus agalactiae [3]): < 0.03 µg/mL | MIC [6]: < 0.03 µg/mL | MIC [10]: < 0.03 µg/mL | MIC [11]: 0.25 µg/mL (≈ 0.294 µM) | MIC (Streptococcus agalactiae [12]): 4 µg/mL (≈ 4.71 µM) | Activity (Enterococcus faecalis): Active | MIC (Haemophilus influenzae [13]): 16 µg/mL (≈ 18.8 µM) | MIC (Streptococcus pneumoniae [15]): 1 µg/mL (≈ 1.18 µM) | MIC [16]: 0.25 µg/mL (≈ 0.294 µM) | MIC (Streptococcus pyogenes): < 0.03 µg/mL | MIC [17]: 1 µg/mL (≈ 1.18 µM) | MIC (Streptococcus pneumoniae [19]): 2 µg/mL (≈ 2.35 µM) | MIC (Moraxella catarrhalis [22]): 0.5 µg/mL (≈ 0.588 µM) | MIC (Streptococcus pneumoniae [23]): 1 µg/mL (≈ 1.18 µM) | CC50 at 48 h [24]: 25.5 µM | MIC (Enterococcus faecium): 16 µg/mL (≈ 18.8 µM) | MIC (Moraxella catarrhalis [25]): 1 µg/mL (≈ 1.18 µM) | MIC [26]: 0.125 µg/mL (≈ 0.147 µM)
